Laboratory results reported in publication PMC6288471 (Frontiers in Veterinary Science, 2018).
Read-outs that look alike come from different tables or passages of the source.

What was measured:
[1] = Clinical pathologic testing: automated hemogram; type: in vivo; details: horses, 24 h after PO or IV administration
Method: (§1) Automated hemogram results were obtained from the EDTA-anticoagulated blood with a hematology analyzer (ADVIA 2120, Siemens Healthcare Diagnostics Inc., Tarrytown, NJ, USA). To verify the automated platelet counts, modified Wright's-stained blood smears were evaluated for platelet clumps by trained medical technologists. Biochemical analysis for renal analytes (serum urea nitrogen and creatinine concentrations), liver enzymes (sorbitol dehydrogenase, glutamate dehydrogenase, aspartate aminotransferase and gamma glutamyl transferase activities), protein-related analytes (total protein, albumin, and globulin concentrations), and the acute phase protein, serum amyloid A, were performed with an automated chemistry analyzer (Hitachi P modular, Roche Diagnostics, Indianapolis, IN, USA) using manufacturer's reagents, with the exception of sorbitol dehydrogenase (Sigma-Aldrich), glutamate dehydrogenase (Randox Laboratories Ltd, Antrim, UK), and serum amyloid A (LZ test Eiken-SAA, Mast House, Merseyside, UK).

[2] = rabbits, cited from earlier work
[3] = Protein binding of apixaban in spiked platelet-poor plasma (ultrafiltration, UPLC-MS); type: in vitro ADME, horse
Method: The supernatant was filtered with a […] syringe filter (Corning Inc.). […] Half of the sample was subsequently frozen at −20°C and the rest was ultracentrifuged at 16,000 × g for 30 min in a molecular exclusion device (Amicon Ultra 30k filter, Millipore), to remove the major plasma proteins. The ultrafiltrate was then frozen at −20°C. Both the spiked plasma and the ultrafiltrate of the spiked plasma were analyzed for apixaban using UPLC-MS.

[4] = humans; cited from earlier work
[5] = Clinical observation for adverse effects / safety testing of a trial IV dose; type: in vivo, horses
Method: The paste was transferred to a 60 mL syringe (Becton-Dickinson) and stored at room temperature until administration. For IV formulation, crushed tablets were dissolved in a vehicle consisting of 10% v/v N,N-dimethylacetamide (EMD Millipore, Billerica, MA, USA), 17% v/v propylene glycol (Sigma-Aldrich), 17% v/v dimethyl sulfoxide (DMSO, Sigma-Aldrich), and 56% v/v deionized water (MilliQ® water, Q-Pod®, EMD Millipore). After vigorous vortexing, the formulation was sterile filtered through a […] cellulose acetate filter (Corning Inc., Corning, NY, USA) then drawn into 60 mL syringes. The IV formulation was prepared 24 h before administration and stored at room temperature. […] To ensure that the vehicle was not toxic, safety testing was performed on a trial IV dose given to a different horse.
Some individual horses had test results that were slightly above or below the established reference intervals, but this likely represented normal biological variability. […] Again, we attributed this to normal biological variation.

[6] = test system: P-glycoprotein; details: cited from earlier work
[7] = Clinical pathologic testing: select biochemical tests; type: in vivo, horses; details: for SDH (sorbitol dehydrogenase), median (range): reference interval 0–11; for GLDH (glutamate dehydrogenase), median (range): reference interval 1–8; for UN (urea nitrogen), median (range): reference interval 3.9–10.0; for SAA (serum amyloid A), median (range): reference interval 5–20, 5 mg/L is the lower limit of detection; for GGT (gamma glutamyl transferase), median (range): reference interval 8–29; for GLOB (globulins), median (range): reference interval 24–44; for ALB (albumin), median (range): reference interval 30–37; for CREAT (creatinine), median (range): reference interval 53–141; for TP (total protein), median (range): reference interval 57–77
Method: as §1

[8] = other animals; cited from earlier work
[9] = test system: platelets; details: PRP spiked ex vivo with concentrations similar to 44 to 74 ng/mL, data not shown
[10] = cats, cited from earlier work
[11] = chimpanzees; cited from earlier work
[12] = target: T1, bovine activated Factor X (Bos taurus, UniProt P00743); test: Apixaban-calibrated chromogenic anti-Xa activity assay in platelet-poor plasma of dosed horses; type: in vivo, horse; details: for Anti-Xa activity (ng/mL), median (range): PO 0.2 mg/kg
T1 construct: purchased Diagnostica Stago STA®-Liquid anti-Xa
Method: The PPP was harvested from the supernatant of PRP after high-speed centrifugation (13,000 × g, Accuspin Micro, Thermo Scientific, Rockford, IL, USA) for 5 min. The PPP was frozen at −20°C and assays were performed in batches. The PPP was thawed at 37°C in a water bath before analysis with an automated coagulation analyzer (STA® Compact, Diagnostica Stago, Parsipanny, NJ, USA). The assay is configured with a bovine activated Factor X reagent added in excess to the test plasma and a chromogenic substrate of Factor Xa (STA®-Liquid anti-Xa, Diagnostica Stago). In this assay, residual, uninhibited Factor Xa cleaves the chromogenic substrate such that the inverse of the color change in the reaction mixture is proportional to the drug concentration in the test plasma.

[13] = test system: plasma protein; details: rabbits; cited from earlier work
[14] = rats; cited from earlier work

T1 sequence (P00743 234-492 limits assumed): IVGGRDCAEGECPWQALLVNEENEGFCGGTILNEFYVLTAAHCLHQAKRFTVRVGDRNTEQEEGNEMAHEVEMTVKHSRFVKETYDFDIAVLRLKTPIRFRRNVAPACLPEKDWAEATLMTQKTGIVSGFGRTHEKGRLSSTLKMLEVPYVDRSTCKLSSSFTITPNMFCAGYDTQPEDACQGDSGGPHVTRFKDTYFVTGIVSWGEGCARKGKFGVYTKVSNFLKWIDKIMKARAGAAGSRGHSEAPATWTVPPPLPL
T1 sequence (P00743 41-180 limits assumed): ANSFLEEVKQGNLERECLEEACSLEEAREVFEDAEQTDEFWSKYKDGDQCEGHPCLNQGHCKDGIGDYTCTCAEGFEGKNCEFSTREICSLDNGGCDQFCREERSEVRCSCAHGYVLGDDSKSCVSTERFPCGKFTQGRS

For `COc1ccc(-n2nc(C(N)=O)c3c2C(=O)N(c2ccc(N4CCCCC4=O)cc2)CC3)cc1` [apixaban], the “changes in hematologic test results” value [1] is listed as “no significant changes”, the half-life ([2]; 2.5 mg/kg IV dose) is listed as 36 min and the oral absorption ([2]; 10 mg/kg) is listed as 3%. It also gave a fraction unbound at 30 min, 200 nM ([3]; horse PPP spiked at 92 ng/mL (200 nM), read-out: mean percentage of protein binding (converted)) of 0.076, a fraction unbound at 30 min, 1000 nM ([3]; horse PPP spiked at 460 ng/mL (1,000 nM), read-out: mean percentage of protein binding (converted)) of 0.015 and a fraction unbound at 30 min ([3]; horse plasma, range as given in abstract) of 0.01 to 0.08. The “availability after oral administration” value [4] was 50%, the “fecal route of elimination, share of the dose” value [4] was over 46% and the “clinically apparent adverse effects” value ([5]; horses, oral and IV formulations) was “no clinically apparent adverse effects”. For the same compound, the “changes in clinical pathologic test results” value ([5]; trial IV dose in a different horse, 24 h after IV bolus) was “no changes”, the adverse clinical reactions ([5]; trial IV dose of dissolved apixaban in a different horse) was “no adverse clinical reactions” and the P-glycoprotein substrate [6] was “substrate”. For the same compound, the “SDH (sorbitol dehydrogenase), median (range)” value (shortened to “SDH (sorbitol dehydrogenase)”) ([7]; IV, T0 (before)) was 4 (3–4) U/L, the “GLDH (glutamate dehydrogenase), median (range)” value (“GLDH (glutamate dehydrogenase)” for short) ([7]; IV, T0 (before)) was 4 (3–4) U/L and the “UN (urea nitrogen), median (range)” value ([7]; IV, T0 (before)) was 6.8 (6.1–7.8) mmol/L. The “SAA (serum amyloid A), median (range)” value ([7]; IV, T0 (before)) was 5 (5–9) mg/L, the “GGT (gamma glutamyl transferase), median (range)” value (from here on “GGT (gamma glutamyl transferase)”) ([7]; IV, T0 (before)) was 11 (10–13) U/L and the “GLOB (globulins), median (range)” value ([7]; IV, T0 (before)) was 36 (32–38) g/L. For the same compound, the “ALB (albumin), median (range)” value ([7]; IV, T0 (before)) was 32 (30–34) g/L, the “CREAT (creatinine), median (range)” value ([7]; IV, T0 (before)) was 106 (97–106) μmol/L and the “TP (total protein), median (range)” value ([7]; IV, T0 (before)) was 68 (66–71) g/L. The “SDH (sorbitol dehydrogenase)” value ([7]; IV, T24) was 3 (2–4) U/L, the “GLDH (glutamate dehydrogenase)” value ([7]; IV, T24) was 3 (3–5) U/L and the “UN (urea nitrogen), median (range)” value ([7]; IV, T24) was 5.7 (5.4–7.5) mmol/L. The “SAA (serum amyloid A), median (range)” value ([7]; IV, T24) was 8 (5–12) mg/L, the “GGT (gamma glutamyl transferase)” value ([7]; IV, T24) was 11 (10–13) U/L and the “GLOB (globulins), median (range)” value ([7]; IV, T24) was 37 (32–40) g/L. For the same compound, the “ALB (albumin), median (range)” value ([7]; IV, T24) was 32 (30–35) g/L, the “CREAT (creatinine), median (range)” value ([7]; IV, T24) was 115 (106–115) μmol/L and the “TP (total protein), median (range)” value ([7]; IV, T24) was 68 (67–72) g/L. For the same compound, the “SDH (sorbitol dehydrogenase)” value ([7]; PO, T0 (before)) was 5 (4–10) U/L, the “GLDH (glutamate dehydrogenase)” value ([7]; PO, T0 (before)) was 6 (4–10) U/L and the “UN (urea nitrogen), median (range)” value ([7]; PO, T0 (before)) was 6.4 (5.4–7.1) mmol/L. The “SAA (serum amyloid A), median (range)” value ([7]; PO, T0 (before)) was 5 (5–7) mg/L, the “GGT (gamma glutamyl transferase)” value ([7]; PO, T0 (before)) was 12 (7–13) U/L and the “GLOB (globulins), median (range)” value ([7]; PO, T0 (before)) was 35 (30–38) g/L. For the same compound, the “ALB (albumin), median (range)” value ([7]; PO, T0 (before)) was 32 (29–32) g/L, the “CREAT (creatinine), median (range)” value ([7]; PO, T0 (before)) was 97 (88–106) μmol/L and the “TP (total protein), median (range)” value ([7]; PO, T0 (before)) was 67 (62–70) g/L. The “SDH (sorbitol dehydrogenase)” value ([7]; PO, T24) was 4 (3–5) U/L, the “GLDH (glutamate dehydrogenase)” value ([7]; PO, T24) was 4 (4–7) U/L and the “UN (urea nitrogen), median (range)” value ([7]; PO, T24) was 5.7 (4.6–6.4) mmol/L. For the same compound, the “SAA (serum amyloid A), median (range)” value ([7]; PO, T24) was 5 (5–5) mg/L, the “GGT (gamma glutamyl transferase)” value ([7]; PO, T24) was 12 (9–13) U/L and the “GLOB (globulins), median (range)” value ([7]; PO, T24) was 36 (30–39) g/L. The “ALB (albumin), median (range)” value ([7]; PO, T24) was 32 (29–33) g/L, the “CREAT (creatinine), median (range)” value ([7]; PO, T24) was 106 (97–115) μmol/L and the “TP (total protein), median (range)” value ([7]; PO, T24) was 65 (63–72) g/L. The “changes in chosen biochemical test results” value ([7]; horses, 24 h after PO or IV administration) was “no significant changes”, the “fecal route of elimination, share of the dose” value [8] was “more than 54%” and the “inhibition of platelet activation in spiked equine PRP” value [9] was “did not see any inhibition”. For the same compound, the half-life ([10]; 0.2 mg/kg IV dose) was 66 min, the Cmax ([10]; IV administration 0.2 mg/kg) was 460 ng/mL and the bioavailability ([10]; oral 0.2 mg/kg) was 85%. For the same compound, the Cmax ([10]; oral administration 0.2 mg/kg) was 74 ng/mL, the “availability after oral administration” value [11] was 50% and the “Anti-Xa activity (ng/mL), median (range)” value ([12]; 15 min) was 7.4 (5.9–9.4) ng/mL. The “Anti-Xa activity (ng/mL), median (range)” value ([12]; 30 min) was 7.5 (6.8–12.5) ng/mL, the “Anti-Xa activity (ng/mL), median (range)” value ([12]; 45 min) was 9.9 (8.4–10.1) ng/mL and the “Anti-Xa activity (ng/mL), median (range)” value ([12]; 1 h) was 10.9 (8.4–17) ng/mL. For the same compound, the “Anti-Xa activity (ng/mL), median (range)” value ([12]; 2 h) was 9.7 (7.4–14.8) ng/mL, the “Anti-Xa activity (ng/mL), median (range)” value ([12]; 4 h) was 9.3 (3.8–12) ng/mL and the “Anti-Xa activity (ng/mL), median (range)” value ([12]; 6 h) was 10.7 (6.3–13.8) ng/mL. For the same compound, the “Anti-Xa activity (ng/mL), median (range)” value ([12]; 24 h) was 7.6 (0–8.3) ng/mL, the “change in anti-Xa activity” value ([12]; oral dosing of apixaban) was “No change” and the apixaban protein bound [13] was ~ 60%. The “availability after oral administration” value [14] was 50%.
